Results on 34 compounds are retold here after patent publication US7858652B2, “Substituted 4-imidazoles” (Hoffmann-La Roche Inc., priority 2006, dated 2010).

The target in this test is T1, TAAR1 (Mus musculus, UniProt Q923Y8).
T1 construct: expressed in transfected cells; host or cells: HEK293 cells (ATCC # CRL-1573), stably transfected with pIRESneo2 expression plasmid; membrane preparation
The experiment in a line: Radioligand binding to TAAR1, membranes of stably transfected HEK293 cells, [3H]-rac-2-(1,2,3,4-tetrahydro-1-naphthyl)-2-imidazoline. As to conditions: for Ki: mouse TAAR1, 4° C., 30 minutes incubation, radioligand at 60 nM. Here is the method:
The Expand High Fidelity PCR System (Roche Diagnostics) was used with 1.5 mM Mg^2+ and purified PCR products were cloned into pCR2.1-TOPO cloning vector (Invitrogen) following the instructions of the manufacturer. PCR products were subcloned into the pIRESneo2 vector (BD Clontech, Palo Alto, Calif.), and expression vectors were sequence verified before introduction in cell lines.
For the generation of stably transfected cell lines, HEK293 cells were transfected with the pIRESneo2 expression plasmids containing the TAAR coding sequences (described above) with Lipofectamine 2000 (Invitrogen) according to the instructions of the manufacturer, and 24 hours post transfection, the culture medium was supplemented with 1 mg/ml G418 (Sigma, Buchs, Switzerland). After a culture period of about 10 days, clones were isolated, expanded and tested for responsiveness to trace amines (all compounds purchased from Sigma) with the cAMP Biotrak Enzyme immunoassay (EIA) System (Amersham) following the non-acetylation EIA procedure provided by the manufacturer.
Cells at confluence were rinsed with ice-cold phosphate buffered saline without Ca^2+ and Mg^2+ containing 10 mM EDTA and pelleted by centrifugation at 1000 rpm for 5 minutes at 4° C. The pellet was then washed twice with ice-cold phosphate buffered saline and the cell pellet was frozen immediately by immersion in liquid nitrogen and stored until use at −80° C. The cell pellet was then suspended in 20 ml HEPES-NaOH (20 mM), pH 7.4 containing 10 mM EDTA, and homogenized with a Polytron (PT 3000, Kinematica) at 10,000 rpm for 10 seconds. The homogenate was centrifuged at 48,000×g for 30 minutes at 4° C. and the pellet resuspended in 20 ml HEPES-NaOH (20 mM), pH 7.4 containing 0.1 mM EDTA (buffer A), and homogenized with a Polytron at 10,000 rpm for 10 seconds. The homogenate was then centrifuged at 48,000×g for 30 minutes at 4° C. and the pellet resuspended in 20 ml buffer A, and homogenized with a Polytron at 10,000 rpm for 10 seconds. Protein concentration was determined by the method of Pierce (Rockford, Ill.). The homogenate was then centrifuged at 48,000×g for 10 minutes at 4° C., resuspended in HEPES-NaOH (20 mM), pH 7.0 including MgCl2 (10 mM) and CaCl2 ([…]) (buffer B) at 200 μg protein per ml and homogenized with a Polytron at 10,000 rpm for 10 seconds.
Binding assay was performed at 4° C. in a final volume of 1 ml, and with an incubation time of 30 minutes. […] Non-specific binding was defined as the amount of [^3H]-rac-2-(1,2,3,4-tetrahydro-1-naphthyl)-2-imidazoline bound in the presence of the appropriate unlabelled ligand (10 μM). Competing ligands were tested in a wide range of concentrations (10 pM-30 μM). […] Each experiment was performed in duplicate. All incubations were terminated by rapid filtration through UniFilter-96 plates (Packard Instrument Company) and glass filter GF/C) pre-soaked for at least 2 hours in polyethylenimine 0.3%, and using a Filtermate 96 Cell Harvester (Packard Instrument Company). The tubes and filters were then washed 3 times with 1 ml aliquots of cold buffer B. Filters were not dried and soaked in Ultima gold (45 μl/well, Packard Instrument Company) and bound radioactivity was counted by a TopCount Microplate Scintillation Counter (Packard Instrument Company).

T1 sequence (Q923Y8 whole entry): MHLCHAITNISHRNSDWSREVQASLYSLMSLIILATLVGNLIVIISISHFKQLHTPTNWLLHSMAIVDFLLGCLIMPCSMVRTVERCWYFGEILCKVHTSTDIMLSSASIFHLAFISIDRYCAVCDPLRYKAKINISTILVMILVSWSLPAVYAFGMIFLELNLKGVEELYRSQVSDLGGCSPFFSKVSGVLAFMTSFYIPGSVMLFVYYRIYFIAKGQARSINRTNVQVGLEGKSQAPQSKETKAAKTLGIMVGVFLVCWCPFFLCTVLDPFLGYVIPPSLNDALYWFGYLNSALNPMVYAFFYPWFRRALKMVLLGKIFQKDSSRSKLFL

`CC1Cc2ccccc2N1Cc1cnc[nH]1` (racemic) [Example 1, (R,S)-1-(1H-Imidazol-4-ylmethyl)-2-methyl-2,3-dihydro-1H-indole] came in with a Ki of 0.0688 µM.

Turning to `CC1CCc2ccccc2N1Cc1cnc[nH]1` (racemic) [Example 3, (R,S)-1-(1H-Imidazol-4-ylmethyl)-2-methyl-1,2,3,4-tetrahydro-quinoline], the inhibition constant (Ki) came to 0.0258 µM.

`CC1CCc2cc(F)ccc2N1Cc1cnc[nH]1` (racemic) [Example 6, (R,S)-6-Fluoro-1-(1H-imidazol-4-ylmethyl)-2-methyl-1,2,3,4-tetrahydro-quinoline] displayed a Ki of 0.0598 µM.

Consider `CC1Cc2cc(Cl)ccc2N1Cc1cnc[nH]1` (racemic) [Example 16, (R,S)-5-Chloro-1-(1H-imidazol-4-ylmethyl)-2-methyl-2,3-dihydro-1H-indole], for which affinity was put at a Ki of 0.0345 µM.

`CC1CN(Cc2cnc[nH]2)c2ccccc21` (racemic) [Example 35, (R,S)-1-(1H-Imidazol-4-ylmethyl)-3-methyl-2,3-dihydro-1H-indole] came in with a Ki of 0.0323 µM.

For the compound `CC1Cc2cc(F)ccc2N1Cc1cnc[nH]1` (racemic) [Example 39, (R,S)-5-Fluoro-1-(1H-imidazol-4-ylmethyl)-2-methyl-2,3-dihydro-1H-indole], the affinity corresponds to a Ki of 0.0493 µM.

`CC1COc2ccccc2N1Cc1cnc[nH]1` (racemic) [Example 45, (R,S)-4-(1H-Imidazol-4-ylmethyl)-3-methyl-3,4-dihydro-2H-benzo[1,4]oxazine] registered a Ki of 0.017 µM.

With `c1ccc2c(c1)CCCC2C1=NCCN1` (racemic) [[^3H]-rac-2-(1,2,3,4-tetrahydro-1-naphthyl)-2-imidazoline, reference compound], the Kd (radioligand of the TAAR1 binding assay, species not stated, read-out: calculated Kd value of the radioligand) is 60 nM.

In the case of `CC1CCc2ccccc2N1Cc1cnc[nH]1` (single isomer, unassigned; (-)) [Example 47, (−)-1-(1H-Imidazol-4-ylmethyl)-2-methyl-1,2,3,4-tetrahydro-quinoline], the Ki was found to be 0.0872 µM.

`CC1COc2ccccc2N1Cc1cnc[nH]1` (single isomer, unassigned; (-)) [Example 49, (−)-4-(1H-Imidazol-4-ylmethyl)-3-methyl-3,4-dihydro-2H-benzo[1,4]oxazine] came in with a Ki of 0.0573 µM.

Consider `Brc1ccc2c(c1)CCN2Cc1cnc[nH]1` [Example 4, 5-Bromo-1-(1H-imidazol-4-ylmethyl)-2,3-dihydro-1H-indole], for which the inhibition constant Ki amounted to 0.0091 µM.

In turn, `c1ccc2c(c1)CCCN2Cc1cnc[nH]1` [Example 7, 1-(3H-Imidazol-4-ylmethyl)-1,2,3,4-tetrahydro-quinoline] showed a Ki of 0.0264 µM.

With `Clc1ccc2c(c1)CCN2Cc1cnc[nH]1` [Example 14, 5-Chloro-1-(1H-imidazol-4-ylmethyl)-2,3-dihydro-1H-indole], the inhibition constant Ki was 0.0102 µM.

`c1ccc2c(c1)OCCN2Cc1cnc[nH]1` [Example 18, 4-(1H-Imidazol-4-ylmethyl)-3,4-dihydro-2H-benzo[1,4]oxazine] gave a Ki of 0.0578 µM.

In turn, `CCc1cccc2c1N(Cc1cnc[nH]1)CC2` [Example 23, 7-Ethyl-1-(1H-imidazol-4-ylmethyl)-2,3-dihydro-1H-indole] yielded a Ki of 0.0042 µM.

In turn, `Clc1cccc2c1CCN2Cc1cnc[nH]1` [Example 25, 4-Chloro-1-(1H-imidazol-4-ylmethyl)-2,3-dihydro-1H-indole] returned a Ki of 0.0016 µM.

With `COc1ccc2c(c1)CCN2Cc1cnc[nH]1` [Example 26, 1-(1H-Imidazol-4-ylmethyl)-5-methoxy-2,3-dihydro-1H-indole], the affinity, expressed as Ki, was 0.0834 µM.

`COc1ccc2c(c1)N(Cc1cnc[nH]1)CC2` [Example 27, 1-(1H-Imidazol-4-ylmethyl)-6-methoxy-2,3-dihydro-1H-indole] yielded a Ki of 0.0389 µM.

`COc1cccc2c1N(Cc1cnc[nH]1)CC2` [Example 28, 1-(1H-Imidazol-4-ylmethyl)-7-methoxy-2,3-dihydro-1H-indole] returned a Ki of 0.0409 µM.

The compound `Cc1ccc2c(c1)CCN2Cc1cnc[nH]1` [Example 29, 1-(1H-Imidazol-4-ylmethyl)-5-methyl-2,3-dihydro-1H-indole] returned a Ki of 0.0115 µM.

As to `COc1cccc2c1CCN2Cc1c[nH]cn1` [Example 31, 1-(1H-Imidazol-4-ylmethyl)-4-methoxy-2,3-dihydro-1H-indole], affinity was put at a Ki of 0.0243 µM.

As for `Clc1cccc2c1N(Cc1cnc[nH]1)CC2` [Example 32, 7-Chloro-1-(H-imidazol-4-ylmethyl)-2,3-dihydro-1H-indole], the Ki turned out to be 0.0403 µM.

In the case of `Brc1ccc2c(c1)CCCN2Cc1cnc[nH]1` [Example 33, 6-Bromo-1-(H-imidazol-4-ylmethyl)-1,2,3,4-tetrahydro-quinoline], the Ki stood at 0.003 µM.

As to `Cc1ccc2c(c1)N(Cc1cnc[nH]1)CC2` [Example 34, 1-(1H-Imidazol-4-ylmethyl)-6-methyl-2,3-dihydro-1H-indole], the affinity, expressed as Ki, was 0.0133 µM.

As to `Fc1ccc2c(c1)CCN2Cc1cnc[nH]1` [Example 36, 5-Fluoro-1-(1H-imidazol-4-ylmethyl)-2,3-dihydro-1H-indole], the Ki came out at 0.0277 µM.

Take `Fc1ccc2c(c1)N(Cc1cnc[nH]1)CC2` [Example 37, 6-Fluoro-1-(1H-imidazol-4-ylmethyl)-2,3-dihydro-1H-indole]: the Ki came to 0.0106 µM.

`Fc1cc2c(cc1F)N(Cc1cnc[nH]1)CC2` [Example 38, 5,6-Difluoro-1-(1H-imidazol-4-ylmethyl)-2,3-dihydro-1H-indole] registered a Ki of 0.0144 µM.

Compound `Cc1cccc2c1N(Cc1cnc[nH]1)CC2` [Example 40, 1-(1H-Imidazol-4-ylmethyl)-7-methyl-2,3-dihydro-1H-indole] displayed a Ki of 0.0405 µM.

As to `Cc1cccc2c1CCN2Cc1cnc[nH]1` [Example 41, 1-(1H-Imidazol-4-ylmethyl)-4-methyl-2,3-dihydro-1H-indole], the affinity, expressed as Ki, was 0.0104 µM.

Turning to `COc1ccc2c(c1)CCCCN2Cc1cnc[nH]1` [Example 43, 1-(3H-Imidazol-4-ylmethyl)-7-methoxy-2,3,4,5-tetrahydro-1H-benzo[b]azepine], the Ki amounted to 0.0538 µM.

Regarding `c1ccc2c(c1)CCCCN2Cc1cnc[nH]1` [Example 44, 1-(3H-Imidazol-4-ylmethyl)-2,3,4,5-tetrahydro-1H-benzo[b]azepine], affinity was put at a Ki of 0.0151 µM.

Compound `c1ccc(COc2cccc3c2CCCN3Cc2cnc[nH]2)cc1` [Example 55, 5-Benzyloxy-1-(1H-imidazol-4-ylmethyl)-1,2,3,4-tetrahydro-quinoline] registered a Ki of 0.0046 µM.

In the case of `c1ccc(COc2ccc3c(c2)N(Cc2cnc[nH]2)CCC3)cc1` [Example 57, 7-Benzyloxy-1-(1H-imidazol-4-ylmethyl)-1,2,3,4-tetrahydro-quinoline], the affinity corresponds to a Ki of 0.0702 µM.

As to `c1ccc(Oc2cccc3c2CCCN3Cc2c[nH]cn2)cc1` [Example 61, 1-(1H-Imidazol-4-ylmethyl)-5-phenoxy-1,2,3,4-tetrahydro-quinoline], the affinity, expressed as Ki, was 0.0027 µM.

One may read the Ki as a dissociation constant, usually derived from enzyme kinetics or from competition with a known ligand. A higher Ki goes with a looser hold on the target. The Kd is the equilibrium constant for the complex coming apart.
